Source: the NIST ThermoML archive (doi:10.1021/je300631s)

How the values were obtained:
[1] = xn = mol fraction of the nth substance listed; settings: 298.15 K, 101 kPa, Liquid, Vibrating tube method
[2] = for surface tension liquid-gas: Maximal bubble pressure; for mass density: 101.33 kPa, Vibrating tube method
[3] = refractive index (Na D-line) (dimensionless); settings: 298.15 K; 101.33 kPa; Liquid; Standard Abbe refractometry

CCCCCC [hexane] + Cc1ccc(C)o1
Settings | mass density [kg/m3]
[1], x1 = 1 | 655.17

Cc1ccc(C)o1 [2,5-dimethylfuran]
[2]
Settings | surface tension liquid-gas [mN/m]
293.15 K | 25.42
303.15 K | 24.04
313.15 K | 22.73
323.15 K | 21.41
333.15 K | 20.22
343.15 K | 19.1
353.15 K | 18.05
358.15 K | 17.5

[2]
Settings | Normal boiling temperature, Liquid [°C] | mass density, 293.15 K [kg/m3] | mass density, 298.15 K [kg/m3] | mass density, 303.15 K [kg/m3] | mass density, 313.15 K [kg/m3] | mass density, 323.15 K [kg/m3] | mass density, 333.15 K [kg/m3] | mass density, 343.15 K [kg/m3] | mass density, 353.15 K [kg/m3] | mass density, 358.15 K [kg/m3]
Ebulliometric method (Recirculating still) | 93.68 | – | – | – | – | – | – | – | – | –
Liquid | – | 901.18 | 895.7 | 890.37 | 879.43 | 868.36 | 857.1 | 845.67 | 834.01 | 828.13

[2], Liquid, Ebulliometric method (Recirculating still)
Settings | vapor or sublimation pressure [kPa]
331.46 K | 30.01
335.51 K | 35.01
339.09 K | 40.01
342.32 K | 45.01
345.26 K | 50.01
348 K | 55.01
350.53 K | 60.01
352.9 K | 65.01
355.13 K | 70.01
357.24 K | 75.01
359.24 K | 80.01
361.13 K | 85.01
362.95 K | 90.01
364.69 K | 95.01
366.79 K | 101.33

Settings | refractive index
[3] | 1.4404

Cc1ccc(C)o1 [2,5-dimethylfuran] + CCCCCC
[1]
Settings | mass density [kg/m3]
x2 = 0 | 895.7
x2 = 0.058 | 878.43
x2 = 0.103 | 865.07
x2 = 0.169 | 846.48
x2 = 0.211 | 834.86
x2 = 0.284 | 815.33
x2 = 0.326 | 804.35
x2 = 0.373 | 792.42
x2 = 0.425 | 779.22
x2 = 0.474 | 767.35
x2 = 0.523 | 755.53
x2 = 0.577 | 743.04
x2 = 0.671 | 722.12
x2 = 0.73 | 709.38
x2 = 0.854 | 683.63
x2 = 0.915 | 671.56
x2 = 0.979 | 659.09
